Measurements taken from patent US20260283977A1, “ADIPOCYTE GROWTH INHIBITOR” (WATANABE OYSTER LABORATORY CO., LTD., priority 2023, published 2026).

Experiments:
3T3-L1 adipocytes [1] = test: Adipogenesis in 3T3-L1 adipocytes cultured with inhibitors of intracellular signaling pathways (AdipoRed); type: cell-based, mouse; conditions: for Lipogenesis/adipogenesis with the inhibitor alone: added two days after differentiation, cultured two days, genistein 1 or 10 μM, Wortmannin 10 or 100 nM, PD98059 1 or 10 μM, Bay 11-7082 1 or 10 nM, FIG. 6A-D
Description: (§1) In yet another experiment, to search for the involvement of intracellular signaling factors, the culture fluid was substituted with a culture fluid containing DMEM, which contained 10% FBS and insulin (10 μg/ml), and a vehicle (1% ethanol) or DHMBA (1 or 10 μM) two days after the differentiation culture. The cells were cultured for another two days in a culture fluid containing signaling inhibitory factors, such as genistein (1 or 10 μM), Wortmannin (10 or 100 nM), PD98059 (1 or 10 μM), or Bay 11-7082 (1 or 10 nM). After the cell culture, the amount of intracellular lipid (triglyceride) formation was quantified using AdipoRed Assay Reagent (Lonza, Walkersville, MD, USA) [19 to 21]. Fluorescence was measured at an excitation of 485 nm and an emission of 570 nm using a 96-well plate reader (μQuant, Bio-Tek Instruments).

3T3-L1 preadipocytes [2] = test: Cell proliferation of 3T3-L1 preadipocytes (living cell count); type: cell-based, mouse
Description: […] Furthermore, in an experiment to measure cell proliferation, 3T3-L1 preadipocytes (1×10^5/ml per well of a 24-well plate) were cultured for three days in a culture fluid containing a vehicle (1% ethanol as the final concentration) or DHMBA (0.1, 1, 10, 100, or 1000 μM).
(§2) After the culture, adhering cells were separated from each well by adding an aseptic solution containing 0.05% trypsin and EDTA (0.1 ml per well) in PBS (Thermo Fisher Scientific, Waltham, MA, USA) not containing Ca^2+/Mg^2+ and incubating the cells for two minutes. Afterward, 0.9 ml of DMEM containing 10% FBS was added to each well to prepare cell suspensions. In order to measure the number of living cells, a medium (0.1 ml) containing suspension cells was mixed with 0.1 ml of 0.5% trypan blue staining solution. The living cells were counted under a microscope (Olympus MTV-3) using a cell counter (Line Seiki H-102P, Tokyo, Japan) and a hemocytometer (Sigma-Aldrich, St. Louis, Missouri). Two counts were averaged in each measurement. The number of cells was shown as the number per well of a culture plate.

3T3-L1 preadipocytes [3] = test: Cell death of sub-confluent 3T3-L1 preadipocytes (cell count); type: cell-based, mouse; conditions: sub-confluent cells cultured another two days; DHMBA 0.1-1000 μM tested, effect at 1000 μM; FIG. 2C
Description: In an experiment to measure cell death, 3T3-L1 preadipocytes (1×10^5/ml per well of a 24-well plate) were cultured for three days in a DMEM culture fluid containing 10% BCS and 1% P/S. The cells that reached sub-confluence were cultured for another 48 hours in the presence of a vehicle (1% ethanol as the final concentration) or DHMBA (0.1, 1, 10, 100, or 1000 μM) to examine the variation in the number of cells.
as §2

3T3-L1 preadipocytes [4] = test: Number of cells in the differentiation process of 3T3-L1 preadipocytes; type: cell-based, mouse; conditions: DHMBA 1 or 10 μM
Description: as §2, with “plate. […]” for “plate.”
First, to quantify the effect of DHMBA on the number of cells, a vehicle (1% ethanol as the final concentration) or DHMBA (1 or 10 μM) was added to the differentiation-inducing culture fluid on day 0 of differentiation starting culture or after two days. After zero to two days of the differentiation culture or after two to four days of the culture, the number of cells adhered to a culture dish was measured as described in the previous section.

3T3-L1 adipocytes [5] = test: Lipid accumulation in 3T3-L1 adipocytes (Oil Red O staining); type: cell-based, mouse; conditions: DHMBA 0.1, 1, 10 or 100 μM on day 0 and after two days of differentiation culture
Description: In order to understand the influence of DHMBA on the differentiation of 3T3-L1 preadipocytes, 3T3-L1 preadipocytes (5×10^4 cells/ml per well of a 24-well plate) were cultured for three days, at which point they reached sub-confluence, in 10% bovine calf serum (BCS). After the cells reached sub-confluence (on day 0), the culture fluid was changed to a DMEM differentiation-inducing culture fluid containing 10% FBS, 1% P/S, 0.5 mM IBMX, 1 μM dexamethasone, and insulin (10 μg/ml), and the cells were cultured for another two days. […]
In an additional experiment to understand the effect of DHMBA on the content of lipids in 3T3-L1 adipocytes, a vehicle (1% ethanol as the final concentration) or DHMBA (0.1, 1, 10, or 100 μM) was included in the differentiation-inducing culture fluid to culture the cells from day 0 of the differentiation-inducing culture to four days later. In order to quantify the lipid content (triglycerides) after the cell culture, the cells in the 24-well plate were gently washed twice with PBS and fixed with 4% formaldehyde dissolved in PBS for 30 minutes. […] Furthermore, in order to quantify the lipid content, the Oil Red stain was extracted with isopropanol. […] The eluate was used to measure the absorbance at 510 nm with a spectrophotometer (μQuant, Bio-Tek Instruments).

3T3-L1 adipocytes [6] = test: Adipogenesis in 3T3-L1 adipocytes (AdipoRed Assay Reagent); type: cell-based, mouse
Description: 3T3-L1 preadipocytes (10^4 cells/0.2 ml per well of a 96-well plate) were cultured for three days, at which point they reached sub-confluence, in DMEM containing 10% BCS and 1% P/S. After the sub-confluence (on day 0), the cells were cultured in a differentiation-inducing culture fluid containing 10% FBS, 1% P/S, 0.5 mM IBMX, and 1 μM dexamethasone with the inclusion of a vehicle (1% ethanol as the final concentration) or DHMBA (0.1, 1, 10, or 100 μM). Two days later, the culture fluid was replaced with a DMEM culture fluid containing insulin (10 μg/ml) without containing 10% FBS or DHMBA, and then, the cells were cultured for another two days.
In another experiment, the cells were cultured in a differentiation culture fluid not containing DHMBA on day 0 of differentiation-inducing culture. Two days later, the culture fluid was replaced with a DMEM culture fluid containing 10% FBS and insulin (10 μg/ml) that contained any of a vehicle (1% ethanol as the final concentration) and DHMBA (0.1, 1, 10, or 100 μM), and then, the cells were cultured for another two days.
as §1

PPARγ = test: Western blotting, PPARγ level in 3T3-L1 adipocytes; type: cell-based, mouse; conditions: DHMBA 10 μM, day 2 to 4 of differentiation; FIG. 7
Description: (§3) 3T3-L1 preadipocytes (1×10^6 cells/100 mm dish used, in 10 ml of culture fluid) were cultured for three days, at which point they reached sub-confluence, in DMEM containing 10% BCS and 1% P/S. Then, the cells were cultured for two days in a DMEM differentiation culture fluid containing 10% FBS, 1% P/S, 0.5 mM IBMX, and 1 μM dexamethasone. […] After the culture, the culture dish was washed three times with cold PBS (10 ml) to eliminate floating cells and dead cells, and adhering cells were scraped using a cell lysis solution containing protease and protein phosphatase inhibitors (Roche Diagnostics, Indianapolis, IN, USA). Next, the cell lysates were centrifuged for 10 minutes at 17,000×g at 4° C. The concentration of proteins in the supernatant was quantified using Bio-Rad Protein Assay Dye (Bio-Rad Laboratories, Inc., Hercules, CA, USA) with bovine serum albumin as a standard. The extracted protein samples were stored at −80° C. until they were used. […]
(§4) After the incubation, the PVDF membrane was incubated at room temperature for 60 minutes in a horseradish peroxidase-conjugated secondary antibody (Santa Cruz Biotechnology, Inc., mouse sc-2005 or rabbit sc-2305; 1:1,000 dilution). Protein bands transferred to the PVDF membrane were detected on an X-ray film using a chemiluminescent substrate (catalog No. 34577, Thermo Scientific, Rockford, IL, USA). […]

C/EBPα = test: Western blotting, C/EBPα level in 3T3-L1 adipocytes; type: cell-based, mouse; conditions: DHMBA 10 μM, day 2 to 4 of differentiation; FIG. 7
Description: as §3, §4

PI3 kinase 100α = test: Western blotting, PI3 kinase 100α level in 3T3-L1 adipocytes; type: cell-based, mouse; conditions: DHMBA 10 μM, day 2 to 4 of differentiation; FIG. 7
Description: as §3, §4

Akt = test: Western blotting, Akt level in 3T3-L1 adipocytes; type: cell-based, mouse; conditions: DHMBA 10 μM, day 2 to 4 of differentiation; FIG. 7
Description: as §3, §4

MAPK = test: Western blotting, MAPK level in 3T3-L1 adipocytes; type: cell-based, mouse; conditions: DHMBA 10 μM, day 2 to 4 of differentiation; FIG. 7
Description: as §3, §4

phosphorylated MAPK = test: Western blotting, phosphorylated MAPK level in 3T3-L1 adipocytes; type: cell-based, mouse; conditions: DHMBA 10 μM, day 2 to 4 of differentiation; FIG. 7
Description: as §3, §4

mTOR = test: Western blotting, mTOR level in 3T3-L1 adipocytes; type: cell-based, mouse; conditions: DHMBA 10 μM, day 2 to 4 of differentiation; FIG. 7
Description: as §3, §4

NF-κB p65 = test: Western blotting, NF-κB p65 level in 3T3-L1 adipocytes; type: cell-based, mouse; conditions: DHMBA 10 μM, day 2 to 4 of differentiation; FIG. 7
Description: as §3, §4

[7] = test system: metastatic prostate cancer cells; conditions: earlier report, no details given; cited from earlier work

COC[C@H]1OC(=O)c2coc3c2[C@@]1(C)C1=C(C3=O)[C@@H]2CCC(=O)[C@@]2(C)C[C@H]1OC(C)=O [Wortmannin, reference compound]
Lipogenesis/adipogenesis with the inhibitor alone (3T3-L1 adipocytes [1]): inhibited

COc1cccc(-c2cc(=O)c3ccccc3o2)c1N [PD98059, reference compound]
Lipogenesis/adipogenesis with the inhibitor alone (3T3-L1 adipocytes [1]): inhibited

Cc1ccc(S(=O)(=O)/C=C/C#N)cc1 [Bay 11-7082, reference compound]
Lipogenesis/adipogenesis with the inhibitor alone (3T3-L1 adipocytes [1]): inhibited

O=c1c(-c2ccc(O)cc2)coc2cc(O)cc(O)c12 [genistein, reference compound]
Lipogenesis/adipogenesis with the inhibitor alone (3T3-L1 adipocytes [1]): not altered

COc1c(O)cc(CO)cc1O [DHMBA, 3,5-dihydroxy-4-methoxybenzyl alcohol]
Cell proliferation (number of cells), time course (3T3-L1 preadipocytes [2]; DHMBA 10 μM, cultured one to five days, effect at three to five days, FIG. 2A): suppressed | Cell proliferation (number of cells), concentration dependence (3T3-L1 preadipocytes [2]; cultured three days, DHMBA 0.1, 1, 10, 100 or 1000 μM, FIG. 2B): suppressed at concentrations ranging from 1 μM to 1000 μM | Cell death (number of cells) (3T3-L1 preadipocytes [3]): reduced | Number of cells, differentiation day 2 to 4 (3T3-L1 preadipocytes [4]; culture fluid containing insulin (10 μg/ml), another two days, FIG. 3C): not varied | Number of cells, differentiation day 0 to 2 (3T3-L1 preadipocytes [4]; differentiation-inducing culture fluid (IBMX, dexamethasone, insulin), two days, FIG. 3B): not varied | Lipid accumulation (Oil Red O stained images) (3T3-L1 adipocytes [5]; FIG. 4A): reduced lipid accumulation | Lipid (triglyceride) content in the cells (absorbance at 510 nm) (3T3-L1 adipocytes [5]; FIG. 4B): decrease was confirmed | Adipogenesis (intracellular lipid formation), DHMBA zero to four days after the differentiation (3T3-L1 adipocytes [6]; DHMBA 1, 10 or 100 μM (0.1 μM also tested), FIG. 5A): suppressed adipogenesis | Adipogenesis (intracellular lipid formation), DHMBA zero to two days after the differentiation (3T3-L1 adipocytes [6]; DHMBA 1, 10 or 100 μM, FIG. 5B): suppression was also observed | Adipogenesis (intracellular lipid formation), DHMBA two to four days after the differentiation (3T3-L1 adipocytes [6]; DHMBA 1, 10 or 100 μM, late stage, FIG. 5C): suppression was also observed | Inhibition of adipogenesis in the presence of Bay 11-7082 (3T3-L1 adipocytes [1]; DHMBA 1 or 10 μM with Bay 11-7082 1 or 10 nM, FIG. 6D): further enhanced | Inhibition of adipogenesis in the presence of PD98059 (3T3-L1 adipocytes [1]; DHMBA 1 or 10 μM with PD98059 1 or 10 μM, FIG. 6C): further enhanced | Inhibition of adipogenesis in the presence of Wortmannin (3T3-L1 adipocytes [1]; DHMBA 1 or 10 μM with Wortmannin 10 or 100 nM, FIG. 6B): further enhanced | Adipogenesis in the presence of genistein (3T3-L1 adipocytes [1]; DHMBA 1 or 10 μM with genistein 1 or 10 μM, FIG. 6A): inhibited adipogenesis | PPARγ protein level (PPARγ): reduced | C/EBPα protein level (C/EBPα): reduced | PI3 kinase 100α protein level (PI3 kinase 100α): reduction | Akt protein level (Akt): reduction | MAPK protein level (MAPK): reduction | Phosphorylated MAPK protein level (phosphorylated MAPK): reduction | mTOR protein level (mTOR): reduction | NF-κB p65 protein level (NF-κB p65): reduced | Proliferation of metastatic prostate cancer cells [7]: suppress the proliferation
